Assay results reported in publication PMC9907135 (Proceedings of the National Academy of Sciences of the …, 2022).
Bridge positions count the residues as written; N and C are the ends. Square brackets hold non-standard residues; d marks the D form. Peptide text beside a SMILES is read from it. * marks the point of attachment. 5FAM = O=C1OC2(c3ccc(O)cc3Oc3cc(O)ccc32)c2ccc(C(=O)*)cc21; R8 = C=CCCCCCC[C@@](C)(N)C(=O)O; S5 = C=CCCC[C@](C)(N)C(=O)O; Nle = CCCC[C@H](N)C(=O)O

What was measured:
[1] = molecular target: T1, PD-L1:PD-1 (Homo sapiens, UniProt Q9NZQ7); conditions: competition ELISA; n = 2
Target sequence in this assay (Q9NZQ7 19-238 limits assumed): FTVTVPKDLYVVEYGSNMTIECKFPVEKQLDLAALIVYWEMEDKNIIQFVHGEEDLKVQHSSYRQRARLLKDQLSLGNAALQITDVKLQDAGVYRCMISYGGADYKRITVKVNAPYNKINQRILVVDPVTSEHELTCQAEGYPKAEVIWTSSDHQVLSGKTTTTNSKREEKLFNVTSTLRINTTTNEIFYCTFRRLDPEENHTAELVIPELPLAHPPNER

[2] = molecular target: T1, PD-L1:PD-1; conditions: SPR ABA competition, 10 μM compound, 400 nM PD-1
Target sequence in this assay (Q9NZQ7 18-239): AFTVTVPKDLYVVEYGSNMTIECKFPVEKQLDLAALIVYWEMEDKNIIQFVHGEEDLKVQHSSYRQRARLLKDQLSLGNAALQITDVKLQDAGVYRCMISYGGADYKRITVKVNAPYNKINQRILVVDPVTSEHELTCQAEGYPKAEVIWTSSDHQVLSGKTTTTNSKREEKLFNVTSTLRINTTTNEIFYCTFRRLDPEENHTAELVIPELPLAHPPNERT

[3] = molecular target: PD-L1 (Homo sapiens, UniProt Q9NZQ7); conditions: TR-FRET; n = 3 for FP peptides, n = 2 for BMS-1001
Chain of PD-L1 (Q9NZQ7 18-239): as above

[4] = molecular target: RNF31 UBA domain (Homo sapiens, UniProt Q96EP0); test: biochemical
Chain of RNF31 UBA domain (Q96EP0 480-639): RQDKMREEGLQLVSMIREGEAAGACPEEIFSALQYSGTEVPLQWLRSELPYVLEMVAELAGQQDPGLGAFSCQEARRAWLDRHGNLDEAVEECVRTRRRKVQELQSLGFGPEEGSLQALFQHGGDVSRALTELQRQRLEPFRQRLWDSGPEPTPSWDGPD

[5] = system: Expi293 cells; conditions: luminescence at Tfinal (22 hours) divided by Tinitial, measure of ATP levels, reflective of cell health
[6] = system: Expi293 cells; conditions: percentage of Helicons in cells after treatment and wash; Expi293 cells 1x10^6 cells/mL, 22 hours, 37°C; washed twice with DPBS; MS quantitation, single-point calibration; n=2, mean ± SD

## Cc1cc(CN[C@H](CO)C(=O)O)c(OCc2cccc(C#N)c2)cc1OCc1cccc(-c2ccc3c(c2)OCCO3)c1C [BMS-1001]
[1]
  Inhibition of PD-L1:PD-1 binding: inhibits PD-L1:PD-1 binding
[2]
  Competition with PD-1 for binding to PD-L1: compete more potently
[3]
  PD-L1 dimerization in solution: clear evidence of PD-L1 dimerization

## CC[C@H](C)[C@H](NC(=O)[C@H](C)NC(=O)[C@@H]1CSCC(=O)Nc2ccc(cc2)NC(=O)CSC[C@H](NC(=O)[C@H](CCCNC(=N)N)NC(=O)[C@H](CCC(N)=O)NC(=O)[C@H](CCSC)NC(=O)[C@H](C)NC(=O)[C@@H]2CCCN2C(=O)[C@H](CC(=O)O)NC(C)=O)C(=O)N[C@@H](Cc2ccccc2)C(=O)N[C@@H](CO)C(=O)N[C@@H](C)C(=O)N[C@@H](C)C(=O)N[C@@H](C(C)C)C(=O)N[C@@H](Cc2ccc(O)cc2)C(=O)N1)C(=O)N[C@@H](CO)C(N)=O [FP06655]
[4]; read-out: RNF31 UBA Binding koff
  koff: 0.052 s⁻¹
[4]; read-out: RNF31 UBA Binding kon
  kon: 1.4e+06 M⁻¹ s⁻¹

## CCCC[C@H](NC(=O)[C@@H](NC(C)=O)[C@@H](C)CC)C(=O)N[C@@H](C)C(=O)N[C@]1(C)CCCCCCC=CCCC[C@@](C)(C(=O)N[C@@H](CCC(N)=O)C(=O)N[C@@H](Cc2ccc(O)cc2)C(=O)N[C@@H](CC(N)=O)C(N)=O)NC(=O)[C@H](Cc2c[nH]c3ccccc23)NC(=O)[C@H](Cc2ccccc2)NC(=O)[C@H](C)NC(=O)[C@H](C)NC(=O)[C@H](CCC(N)=O)NC(=O)[C@H](Cc2ccc(O)cc2)NC1=O [FP08024] (Ac-I[Nle]A[R8]YQAAFW[S5]QYN-NH2; staple 4-11)
[5]
  CellTiter-Glo fold change ± SD: 1.2 ± 0.00
[6]
  Helicon in cells ± SD (%): 6.5 ± 0.5%

## CC(C)C[C@H](NC(=O)[C@H](C)NC(=O)CNC(=O)[C@H](CCCCN)NC(=O)[C@H](CCCNC(=N)N)NC(=O)[C@H](C)NC(=O)[C@H](Cc1ccccc1)NC(=O)[C@H](CCCNC(=N)N)NC(=O)[C@H](CCC(N)=O)NC(=O)c1ccc2c(c1)C(=O)OC21c2ccc(O)cc2Oc2cc(O)ccc21)C(=O)N[C@@H](CCCNC(=N)N)C(=O)N[C@@H](CCC(N)=O)C(=O)N[C@@H](CCCCN)C(=O)N[C@@H](CC(N)=O)C(=O)N[C@H](C(N)=O)C(C)C [FP47831, reference compound] (5FAM-QRFARKGALRQKNV-NH2)
[5]
  CellTiter-Glo fold change ± SD: 1.1 ± 0.02
[6]
  Helicon in cells ± SD (%): 0.0 ± 0.0%
